{"source": "patent US20120129721A1", "about": "“URINARY GM2 ACTIVATOR PROTEIN AS A MARKER OF ACUTE RENAL FAILURE OR THE RISK OF […] RENAL FAILURE” (priority 2009, published 2012)", "key": {"[1]": {"test_system": "GM2 activator protein (GM2AP) in urine", "source_text": "(§1) In-house bred, female Wistar rats weighing 190-230 g were divided in the following experimental groups (FIG. 1): (i) Control: rats treated i.p. during 7-13 days with saline (0.9% NaCl), once daily.\n(§2) For the whole experiment, rats were individually allocated in metabolic cages under temperature and humidity controlled conditions. Animals were allowed to eat regular chow and drink water ad libitum. At different times, 24-hour urine and blood samples were obtained. Urine was collected in graduated vessels supplemented with 100 μL of 0.1% sodium azide and 1 ml oil to prevent contamination and evaporation, respectively. Subsequently, urine was cleared by centrifugation at 1,175×g, aliquoted and stored at −80° C. Blood was drawn from a small incision in the tail and collected in heparinised capillaries. These were immediately centrifuged at 12,000×g and plasma was stored at −80° C. At the end of the experiment, rats were anesthetized with sodium pentobarbital (10 mg/kg). The kidneys were perfused with heparinised saline through the abdominal aorta, and they were immediately dissected. The right kidney and one half of the left one were swiftly frozen by immersion in liquid nitrogen, and stored at −80° C. Eventually, they were used for Western blot studies. For such a purpose, frozen tissues were homogenized under freezing conditions by hammer-smashing, until a fine powder was obtained. The powder was also kept at −80° C. The second half of the left kidney was immersed in 3.7% paraformaldehyde at 4° C. during 14-16 hours. After it, tissue samples were processed for immunohistochemical studies.\nProtein extracts were obtained from 100 mg tissue homogenate powder, prepared by homogenizing the kidneys with a tissue mixer (Ultra-Turrax T8, IKA®-Werwe) at 4° C. in homogenization buffer (140 mM NaCl, 20 mM Tris-HCl pH=7.5, 0.5 Methylenediaminetetraacetic acid—EDTA-, 10% glycerol, 1% Igepal CA-630, 1 μg/mL aprotinin, 1 μg/mL leupeptin, 1 μg/mL pepstatin A, 1 mM phenylmethylsulphonyl fluoride—PMSF-). Tissue homogenates were centrifuged at 22,000 g during 15 minutes at 4° C. Supernatants were collected. Protein concentration was measured with a commercial kit (BioRad) based on the Lowry method. 50 μg total protein from tissue extracts or 20 μL cleared urine from each sample were separated by electrophoresis in 10-15% acrylamide gels (Mini Protean II system, BioRad). Immediately, proteins were electrically transferred to an Immobilon-P membrane (Millipore). […]\nProtein concentration was determined by the Bradford method."}, "Wistar rats [2]": {"test_system": "Wistar rats", "assay": "Survival rate and body weight evolution of rats treated with gentamicin", "assay_type": "in vivo", "details": "gentamicin 150 mg/kg/day (G-150), 7 days"}, "Wistar rats [3]": {"test_system": "Wistar rats", "assay": "Renal function characterization (plasma creatinine, BUN, urinary protein and NAG excretion) of gentamicin-treated rats", "details": "for BUN concentration: vs control", "source_text": "as §1, §2\n(§3) Plasma and urine concentration of creatinine and blood urea nitrogen (BUN) were determined by an automated analysis system (Reflotron®, Roche Diagnostics, Barcelona, Spain) and commercial reactive strips (Roche Diagnostics, Barcelona, Spain), using 32 μL of plasma and urine. This method has a lower detection limit of 0.5 mg/dL for creatinine. Samples reading under 0.5 mg/dL creatinine were head-to-head re-assayed by the colorimetric method of Jaffe (Hervey, 1953. Nature, 171: 1125).\n(§4) Urine protein concentration (mg/mL) was measured by the Bradford method (39). Daily protein excretion (mg/day) was obtained by multiplying urine protein concentration by the 24-hour urine flow (mL/day).\n(§5) Urine NAG activity (arbitrary units, AU/mL), as an estimation of urine NAG concentration, was measured by a commercial enzymatic test (Roche Diagnostics, Barcelona, Spain) following the manufacturer's instructions. Urine NAG activity was converted into daily NAG excretion (AU/day) by multiplying urine NAG activity by 24-hour urine flow (mL/day)."}, "Wistar rats [4]": {"test_system": "Wistar rats", "assay": "Kidney histology (haematoxylin and eosin)", "assay_type": "in vivo", "description": "Eventually, they were used for Western blot studies. […] The powder was also kept at −80° C. […] After it, tissue samples were processed for immunohistochemical studies.\nKidneys were kept in p-formaldehyde overnight at 4° C. Then, paraffin blocks were made and 5-μm tissue sections were cut and stained with hematoxilin and eosin. Photographs were taken under an Olympus BX51 microscope connected to an Olympus DP70 colour, digital camera."}, "[5]": {"test_system": "PAI-1, KIM-1 and vimentin in renal tissue", "assay": "Western blot of renal tissue homogenates for markers of tissue damage and repair", "source_text": "as §1, §2\n(§6) Protein extracts were obtained from 100 mg tissue homogenate powder, prepared by homogenizing the kidneys with a tissue mixer (Ultra-Turrax T8, IKA®-Werwe) at 4° C. in homogenization buffer (140 mM NaCl, 20 mM Tris-HCl pH=7.5, 0.5 Methylenediaminetetraacetic acid—EDTA-, 10% glycerol, 1% Igepal CA-630, 1 μg/mL aprotinin, 1 μg/mL leupeptin, 1 μg/mL pepstatin A, 1 mM phenylmethylsulphonyl fluoride—PMSF-). Tissue homogenates were centrifuged at 22,000 g during 15 minutes at 4° C. Supernatants were collected. Protein concentration was measured with a commercial kit (BioRad) based on the Lowry method. 50 μg total protein from tissue extracts or 20 μL cleared urine from each sample were separated by electrophoresis in 10-15% acrylamide gels (Mini Protean II system, BioRad). Immediately, proteins were electrically transferred to an Immobilon-P membrane (Millipore). After blocking the membrane to avoid unspecific binding, membranes were probed with antibodies against KIM-1 (R&D Systems), bone morphogenetic protein-7 (BMP-7, Santa Cruz Biotechnology), plasminogen activator inhibitor-1 (PAI-1, BD Biosciences), vimentin (Dako Denmark) and GM2 activator protein (GM2AP, see above)."}, "Wistar rats [6]": {"test_system": "Wistar rats", "assay": "Time course of markers of nephrotoxicity under gentamicin 150 mg/kg/day", "source_text": "as §1, §2, §3, §4, §5, §6"}, "[7]": {"test_system": "GM2 activator protein (GM2AP) in urine", "assay": "Urinary GM2AP (Western blot) and renal function in humans treated with gentamicin", "assay_type": "in vivo", "details": "hospitalized patients under gentamicin regime for 2 or 3 days vs untreated controls", "source_text": "Supernatants were collected.\nAs controls, the urine from age- and sex-matched individuals not receiving gentamicin was used."}, "[8]": {"details": "G-150, after inception of treatment"}}, "note": "Where two headings read alike, the source gives them in different places.", "data": [{"molecule": "N.N.[Cl][Pt][Cl]", "note": "[cisplatin]", "values": [{"measurement": "urinary GM2AP (Western blot)", "setting": "[1]; two doses of cisplatin 10 mg/kg on first and third days, urine 4 days after treatment inception", "result": "high levels"}]}, {"molecule": "gentamicin", "values": [{"measurement": "body weight", "setting": "Wistar rats [2]", "result": "body weight loss"}, {"measurement": "death rate", "setting": "Wistar rats [2]", "result": "~50", "unit": "%"}, {"measurement": "nephrotoxic effect (pilot dose titration)", "setting": "Wistar rats [3]; 6 daily doses of 50 mg/kg/day (G-50)", "result": "no signs of nephrotoxicity"}, {"measurement": "nephrotoxic effect (pilot dose titration)", "setting": "Wistar rats [3]; 6 daily doses of 150 mg/kg/day (G-150)", "result": "marked renal failure"}, {"measurement": "BUN concentration", "setting": "Wistar rats [3]; G-50, 7 days", "result": "not modified"}, {"measurement": "BUN concentration", "setting": "Wistar rats [3]; G-150, 7 days", "result": "profoundly altered"}, {"measurement": "renal histology", "setting": "Wistar rats [4]; G-50, 7 days, vs control", "result": "no gross tissue alterations"}, {"measurement": "renal histology", "setting": "Wistar rats [4]; G-150, 7 days", "result": "massive tubular necrosis"}, {"measurement": "renal level of KIM-1", "setting": "[5]; G-50, 7 days, vs control", "result": "no increment"}, {"measurement": "renal level of PAI-1", "setting": "[5]; G-50, 7 days, vs control", "result": "no increment"}, {"measurement": "renal level of vimentin", "setting": "[5]; G-50, 7 days, vs control", "result": "no increment"}, {"measurement": "renal level of KIM-1", "setting": "[5]; G-150, 7 days", "result": "clear increase"}, {"measurement": "renal level of PAI-1", "setting": "[5]; G-150, 7 days", "result": "clear increase"}, {"measurement": "renal level of vimentin", "setting": "[5]; G-150, 7 days", "result": "clear increase"}, {"measurement": "level of GM2AP in urine (Western blot)", "setting": "[1]; G-50, 7 days, vs control", "result": "differential level"}, {"measurement": "GM2AP in urine (differential proteomics, 2D-electrophoresis)", "setting": "[1]; G-50, 7 days, absent in control urine", "result": "highly expressed"}, {"measurement": "level of GM2AP in urine (Western blot)", "setting": "[1]; G-150, 7 days, overt renal failure", "result": "increased"}, {"measurement": "day by which BUN concentration was increased", "setting": "Wistar rats [6]; [8]", "result": 4, "unit": "days"}, {"measurement": "day by which proteinuria was increased", "setting": "Wistar rats [6]; [8]", "result": 4, "unit": "days"}, {"measurement": "day at which urinary level of GM2AP started to increase", "setting": "Wistar rats [6]; G-150, urine, Western blot", "result": 1, "unit": "days"}, {"measurement": "day by which urinary level of KIM-1 was increased", "setting": "Wistar rats [6]; G-150, urine, Western blot", "result": 4, "unit": "days"}, {"measurement": "day by which urinary level of PAI-1 was increased", "setting": "Wistar rats [6]; G-150, urine, Western blot", "result": 4, "unit": "days"}, {"measurement": "time from beginning of administration at which GM2AP is detected by Western blot", "setting": "Wistar rats [6]; gentamicin 150 mg/kg/day, urine", "result": 24, "unit": "h"}, {"measurement": "urinary level of GM2AP (Western blot)", "setting": "[7]", "result": "clearly higher"}]}]}
